According to patent publication EP4722207A1, “OXOISOINDOLINYL-SUBSTITUTED TETRAHYDROPYRIMIDINEDIONE DERIVATIVE AND USE THEREOF” (Gluetacs Therapeutics (Shanghai) Co., Ltd., priority 2023, dated 2024):
One block for each molecule: values may come before it.

Experiments:
WEE1 = biological target: T1, WEE1 (Homo sapiens, UniProt P30291+Q96SW2); test: Western-blot assay, substrate protein degradation in hPBMCs: WEE1; type: cell-based; details: for WEE1 substrate protein remaining %: compounds at 50 nM and 500 nM, 24 hours
T1 construct: effects of the compounds of the present disclosure on the expression of target proteins in cells; endogenous in cells; host or cells: human PBMCs (hPBMCs)
T1 sequence (P30291 whole entry): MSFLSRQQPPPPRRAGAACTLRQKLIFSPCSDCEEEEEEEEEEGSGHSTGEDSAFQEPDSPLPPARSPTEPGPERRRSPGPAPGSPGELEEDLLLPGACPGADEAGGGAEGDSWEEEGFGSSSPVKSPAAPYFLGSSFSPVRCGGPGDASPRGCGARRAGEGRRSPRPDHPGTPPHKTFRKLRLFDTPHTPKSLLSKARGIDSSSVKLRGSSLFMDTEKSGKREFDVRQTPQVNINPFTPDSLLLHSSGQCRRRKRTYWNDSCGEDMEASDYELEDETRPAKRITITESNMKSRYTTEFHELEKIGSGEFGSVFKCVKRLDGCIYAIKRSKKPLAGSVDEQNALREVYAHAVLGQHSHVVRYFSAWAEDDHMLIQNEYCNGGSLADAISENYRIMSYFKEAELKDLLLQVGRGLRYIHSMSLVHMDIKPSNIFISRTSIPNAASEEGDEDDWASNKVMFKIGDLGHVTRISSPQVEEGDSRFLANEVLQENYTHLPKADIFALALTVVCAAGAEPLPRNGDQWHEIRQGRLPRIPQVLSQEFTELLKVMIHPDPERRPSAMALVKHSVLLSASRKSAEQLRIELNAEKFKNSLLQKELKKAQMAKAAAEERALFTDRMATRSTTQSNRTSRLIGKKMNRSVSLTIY
T1 sequence (Q96SW2 whole entry): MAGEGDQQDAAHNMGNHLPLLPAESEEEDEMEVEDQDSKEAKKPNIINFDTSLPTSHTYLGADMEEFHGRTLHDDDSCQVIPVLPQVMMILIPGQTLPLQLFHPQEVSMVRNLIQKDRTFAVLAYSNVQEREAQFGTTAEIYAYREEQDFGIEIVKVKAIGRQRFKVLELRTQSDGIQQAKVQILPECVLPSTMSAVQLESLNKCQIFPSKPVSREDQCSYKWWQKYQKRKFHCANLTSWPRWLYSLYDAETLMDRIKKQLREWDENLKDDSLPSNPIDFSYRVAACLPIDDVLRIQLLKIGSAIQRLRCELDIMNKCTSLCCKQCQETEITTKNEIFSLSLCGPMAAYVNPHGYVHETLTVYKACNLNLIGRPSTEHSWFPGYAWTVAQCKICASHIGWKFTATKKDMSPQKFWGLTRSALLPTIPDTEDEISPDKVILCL
T1 sequence (Q16531 whole entry partner): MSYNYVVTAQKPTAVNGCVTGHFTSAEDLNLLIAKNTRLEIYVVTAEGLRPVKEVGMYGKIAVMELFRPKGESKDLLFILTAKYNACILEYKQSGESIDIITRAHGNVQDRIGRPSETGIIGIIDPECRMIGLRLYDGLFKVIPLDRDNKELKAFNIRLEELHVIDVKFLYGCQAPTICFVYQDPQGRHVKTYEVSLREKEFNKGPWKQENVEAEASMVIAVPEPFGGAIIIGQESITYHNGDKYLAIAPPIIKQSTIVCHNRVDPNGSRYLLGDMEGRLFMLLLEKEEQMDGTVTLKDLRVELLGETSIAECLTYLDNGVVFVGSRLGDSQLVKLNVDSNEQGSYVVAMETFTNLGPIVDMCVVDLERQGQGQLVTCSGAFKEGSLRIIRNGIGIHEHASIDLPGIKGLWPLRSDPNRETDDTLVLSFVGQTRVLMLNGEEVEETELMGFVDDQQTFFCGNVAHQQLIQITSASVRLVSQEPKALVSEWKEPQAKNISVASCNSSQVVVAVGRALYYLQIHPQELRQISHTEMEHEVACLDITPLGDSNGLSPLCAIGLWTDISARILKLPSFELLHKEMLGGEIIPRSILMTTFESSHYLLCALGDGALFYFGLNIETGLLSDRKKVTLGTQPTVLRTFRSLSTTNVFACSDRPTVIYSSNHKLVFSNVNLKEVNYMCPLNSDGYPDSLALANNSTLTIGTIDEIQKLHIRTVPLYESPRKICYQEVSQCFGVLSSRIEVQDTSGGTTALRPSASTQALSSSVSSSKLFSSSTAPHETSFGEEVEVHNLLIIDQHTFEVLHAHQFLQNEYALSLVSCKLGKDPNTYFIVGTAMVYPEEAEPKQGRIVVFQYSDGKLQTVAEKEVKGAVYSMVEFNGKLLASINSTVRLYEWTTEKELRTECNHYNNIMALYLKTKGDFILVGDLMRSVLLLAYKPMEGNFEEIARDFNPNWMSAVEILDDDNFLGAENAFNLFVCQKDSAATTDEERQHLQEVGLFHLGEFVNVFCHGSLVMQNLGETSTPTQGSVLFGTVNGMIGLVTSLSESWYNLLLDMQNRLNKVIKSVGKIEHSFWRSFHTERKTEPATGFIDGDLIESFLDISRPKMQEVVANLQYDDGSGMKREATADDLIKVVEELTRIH

IKZF3 = biological target: T2, IKZF3 (Homo sapiens, UniProt Q96SW2+Q9UKT9); test: Western-blot assay, substrate protein degradation in hPBMCs: IKZF3; type: cell-based; details: for IKZF3 substrate protein remaining %: compounds at 50 nM and 500 nM, 24 hours
T2 construct: effects of the compounds of the present disclosure on the expression of target proteins in cells; endogenous in cells; host or cells: human PBMCs (hPBMCs)
T2 sequence (Q9UKT9 whole entry): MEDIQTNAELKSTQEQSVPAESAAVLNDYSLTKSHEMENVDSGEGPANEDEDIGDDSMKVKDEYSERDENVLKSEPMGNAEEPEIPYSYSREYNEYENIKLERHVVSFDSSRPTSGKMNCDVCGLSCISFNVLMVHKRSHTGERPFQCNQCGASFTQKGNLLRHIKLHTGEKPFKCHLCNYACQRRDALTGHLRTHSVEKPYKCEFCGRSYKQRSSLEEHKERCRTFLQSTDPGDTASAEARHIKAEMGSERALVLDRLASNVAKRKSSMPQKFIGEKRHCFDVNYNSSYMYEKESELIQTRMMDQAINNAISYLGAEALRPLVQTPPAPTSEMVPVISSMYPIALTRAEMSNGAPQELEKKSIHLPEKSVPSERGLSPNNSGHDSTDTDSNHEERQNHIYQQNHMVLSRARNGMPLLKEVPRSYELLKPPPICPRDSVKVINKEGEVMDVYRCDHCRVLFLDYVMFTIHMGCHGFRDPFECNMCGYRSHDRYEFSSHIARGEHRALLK
T2 sequence (Q96SW2 whole entry): as the sequence (Q96SW2 whole entry) above
T2 sequence (Q16531 whole entry partner): as the sequence (Q16531 whole entry partner) above

MM.1S = test: Cell viability assay (CellTiter-Meiluncell Luminescent), tumor cell proliferation, MM.1S; details: Homo sapiens, MM1.S, 96 h, read-out: inhibitory activity (IC50, nM) against tumor cells proliferation, MM.1S
CK1α = biological target: T3, CK1α (Homo sapiens, UniProt P48729+Q96SW2); test: Western-blot assay, substrate protein degradation in hPBMCs: CK1α; type: cell-based; details: for CK1α substrate protein remaining %: compounds at 50 nM and 500 nM, 24 hours
T3 construct: effects of the compounds of the present disclosure on the expression of target proteins in cells; endogenous in cells; host or cells: human PBMCs (hPBMCs)
T3 sequence (P48729 whole entry): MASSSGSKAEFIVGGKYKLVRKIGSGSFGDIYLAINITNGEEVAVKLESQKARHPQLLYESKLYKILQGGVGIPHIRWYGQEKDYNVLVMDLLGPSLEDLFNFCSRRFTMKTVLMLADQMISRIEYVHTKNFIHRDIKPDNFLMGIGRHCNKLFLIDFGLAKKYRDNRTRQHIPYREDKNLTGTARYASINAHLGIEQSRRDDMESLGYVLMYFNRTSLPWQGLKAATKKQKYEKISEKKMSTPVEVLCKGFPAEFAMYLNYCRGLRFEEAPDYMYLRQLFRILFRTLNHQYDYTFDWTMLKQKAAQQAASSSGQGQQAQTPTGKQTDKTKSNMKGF
T3 sequence (Q96SW2 whole entry): as the sequence (Q96SW2 whole entry) above
T3 sequence (Q16531 whole entry partner): as the sequence (Q16531 whole entry partner) above

IKZF1 = biological target: T4, IKZF1 (Homo sapiens, UniProt Q13422+Q96SW2); test: Western-blot assay, substrate protein degradation in hPBMCs: IKZF1; type: cell-based; details: for IKZF1 substrate protein remaining %: compounds at 50 nM and 500 nM, 24 hours
T4 construct: effects of the compounds of the present disclosure on the expression of target proteins in cells; endogenous in cells; host or cells: human PBMCs (hPBMCs)

GSPT1 = biological target: T5, GSPT1 (Homo sapiens, UniProt P15170+Q96SW2); test: Western-blot assay, substrate protein degradation in hPBMCs: GSPT1; type: cell-based; details: for GSPT1 substrate protein remaining %: compounds at 50 nM and 500 nM, 24 hours
T5 construct: effects of the compounds of the present disclosure on the expression of target proteins in cells; endogenous in cells; host or cells: human PBMCs (hPBMCs)
T5 sequence (P15170 whole entry): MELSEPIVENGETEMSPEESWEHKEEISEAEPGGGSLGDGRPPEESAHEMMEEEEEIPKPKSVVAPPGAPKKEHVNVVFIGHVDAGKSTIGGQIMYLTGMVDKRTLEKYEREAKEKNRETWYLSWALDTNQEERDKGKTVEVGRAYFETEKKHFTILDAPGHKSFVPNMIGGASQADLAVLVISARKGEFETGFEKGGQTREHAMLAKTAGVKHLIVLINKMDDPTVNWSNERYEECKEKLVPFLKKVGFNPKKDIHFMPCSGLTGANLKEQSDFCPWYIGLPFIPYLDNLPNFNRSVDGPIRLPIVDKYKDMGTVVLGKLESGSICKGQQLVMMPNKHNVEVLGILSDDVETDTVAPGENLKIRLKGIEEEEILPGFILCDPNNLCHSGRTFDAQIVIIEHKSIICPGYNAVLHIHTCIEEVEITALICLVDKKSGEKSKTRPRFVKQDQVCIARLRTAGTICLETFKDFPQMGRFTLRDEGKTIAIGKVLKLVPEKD
T5 sequence (Q96SW2 whole entry): as the sequence (Q96SW2 whole entry) above
T5 sequence (Q16531 whole entry partner): as the sequence (Q16531 whole entry partner) above

IKZF2 = biological target: T6, IKZF2 (Homo sapiens, UniProt Q96SW2+Q9UKS7); test: Western-blot assay, substrate protein degradation in hPBMCs: IKZF2; type: cell-based; details: for IKZF2 substrate protein remaining %: compounds at 50 nM and 500 nM, 24 hours
T6 construct: effects of the compounds of the present disclosure on the expression of target proteins in cells; endogenous in cells; host or cells: human PBMCs (hPBMCs)
T6 sequence (Q9UKS7 whole entry): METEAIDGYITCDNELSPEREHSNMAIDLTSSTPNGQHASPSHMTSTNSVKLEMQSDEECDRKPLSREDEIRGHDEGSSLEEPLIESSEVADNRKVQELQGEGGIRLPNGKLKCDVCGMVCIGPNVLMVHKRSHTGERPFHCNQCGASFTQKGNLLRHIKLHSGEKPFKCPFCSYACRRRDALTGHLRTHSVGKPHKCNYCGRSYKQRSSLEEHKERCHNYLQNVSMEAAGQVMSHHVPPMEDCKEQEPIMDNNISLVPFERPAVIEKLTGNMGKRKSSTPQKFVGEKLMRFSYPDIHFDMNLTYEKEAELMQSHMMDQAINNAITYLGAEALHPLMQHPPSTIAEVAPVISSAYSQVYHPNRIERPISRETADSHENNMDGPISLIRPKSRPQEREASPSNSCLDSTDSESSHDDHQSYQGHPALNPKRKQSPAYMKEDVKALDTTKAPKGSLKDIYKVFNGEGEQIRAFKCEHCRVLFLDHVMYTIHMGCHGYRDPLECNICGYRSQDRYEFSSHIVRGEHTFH
T6 sequence (Q96SW2 whole entry): as the sequence (Q96SW2 whole entry) above
T6 sequence (Q16531 whole entry partner): as the sequence (Q16531 whole entry partner) above

H292 = test: Cell viability assay (CellTiter-Meiluncell Luminescent), tumor cell proliferation, H292; details: Homo sapiens, NCI-H292, 96 h
MV-4-11 = test: Cell viability assay (CellTiter-Meiluncell Luminescent), tumor cell proliferation, MV-4-11; details: Homo sapiens, MV4-11, 96 h
MDA-MB-231 = test: Cell viability assay (CellTiter-Meiluncell Luminescent), tumor cell proliferation, MDA-MB-231; details: Homo sapiens, MDA-MB-231, 96 h
[1] = 24 hours of compound treatment, 50 nM and 500 nM
[2] = read-out: Inhibition Rate at 10 nM (%)
[3] = read-out: Inhibition Rate at 500 nM (%)

IC50 (MM.1S): 500 to 1000 nM
Compound: Cc1ccc(Sc2ccccc2N2CCN(Cc3ccc4c(c3)CN(N3CCC(=O)NC3=O)C4=O)CC2)c(C)c1 [GT-04867, 1-(5-((4-(2-((2,4-dimethylphenyl)thio)phenyl)piperazin-1-yl)methyl)-1-oxoisoindolin-2-yl)dihydropyrimidine-2,4(1H,3H)-dione]
WEE1 substrate protein remaining % (WEE1): B ("B" is defined as 80%< substrate protein remaining %≤ 100%) | IKZF3 substrate protein remaining % (IKZF3): B ("B" is defined as 80%< substrate protein remaining %≤ 100%) | CK1α substrate protein remaining % (CK1α): B ("B" is defined as 80%< substrate protein remaining %≤ 100%) | IKZF1 substrate protein remaining % (IKZF1): A ("A" is defined as 0% ≤ substrate protein remaining % ≤ 80%) | GSPT1 substrate protein remaining % (GSPT1): A ("A" is defined as 0% ≤ substrate protein remaining % ≤ 80%) | IKZF2 substrate protein remaining % (IKZF2): B ("B" is defined as 80%< substrate protein remaining %≤ 100%)

Compound: O=C1CCN(N2Cc3cc(CN4CC=C(c5ccoc5)CC4)ccc3C2=O)C(=O)N1 [GT-04875, 1-(5-((4-(furan-3-yl)-3,6-dihydropyridin-1(2H)-yl)methyl)-1-oxoisoindolin-2-yl)dihydropyrimidine-2,4(1H,3H)-dione]
WEE1 substrate protein remaining % (WEE1): A ("A" is defined as 0% ≤ substrate protein remaining % ≤ 80%) | IKZF3 substrate protein remaining % (IKZF3): B ("B" is defined as 80%< substrate protein remaining %≤ 100%) | IC50 (MM.1S): 300 to 500 nM | CK1α substrate protein remaining % (CK1α): B ("B" is defined as 80%< substrate protein remaining %≤ 100%) | IKZF1 substrate protein remaining % (IKZF1): B ("B" is defined as 80%< substrate protein remaining %≤ 100%) | GSPT1 substrate protein remaining % (GSPT1): A ("A" is defined as 0% ≤ substrate protein remaining % ≤ 80%) | IKZF2 substrate protein remaining % (IKZF2): B ("B" is defined as 80%< substrate protein remaining %≤ 100%)

IC50 (MM.1S): 500 to 1000 nM
Compound: O=C1CCN(N2Cc3cc(CN4CCN(C(c5ccc(F)cc5)c5ccc(F)cc5)CC4)ccc3C2=O)C(=O)N1 [GT-04894, 1-(5-((4-(bis(4-fluorophenyl)methyl)piperazin-1-yl)methyl)-1-oxoisoindolin-2-yl)dihydropyrimidine-2,4(1H,3H)-dione]
WEE1 substrate protein remaining % (WEE1): A ("A" is defined as 0% ≤ substrate protein remaining % ≤ 80%) | IKZF3 substrate protein remaining % (IKZF3): B ("B" is defined as 80%< substrate protein remaining %≤ 100%) | CK1α substrate protein remaining % (CK1α): B ("B" is defined as 80%< substrate protein remaining %≤ 100%) | IKZF1 substrate protein remaining % (IKZF1): A ("A" is defined as 0% ≤ substrate protein remaining % ≤ 80%) | GSPT1 substrate protein remaining % (GSPT1): A ("A" is defined as 0% ≤ substrate protein remaining % ≤ 80%) | IKZF2 substrate protein remaining % (IKZF2): A ("A" is defined as 0% ≤ substrate protein remaining % ≤ 80%)

IC50 (MM.1S): 500 to 1000 nM
Compound: CC1(C)CCC(CN2CCN(Cc3ccc4c(c3)CN(N3CCC(=O)NC3=O)C4=O)CC2)=C(c2ccc(Cl)cc2)C1 [GT-04944, 1-(5-((4-((4'-chloro-5,5-dimethyl-3,4,5,6-tetrahydro-[1,1'-biphenyl]-2-yl)methyl)piperazin-1-yl)methyl)-1-oxoisoindolin-2-yl)dihydropyrimidine-2,4(1H,3H)-dione]
WEE1 substrate protein remaining % (WEE1): B ("B" is defined as 80%< substrate protein remaining %≤ 100%) | IKZF3 substrate protein remaining % (IKZF3): B ("B" is defined as 80%< substrate protein remaining %≤ 100%) | CK1α substrate protein remaining % (CK1α): B ("B" is defined as 80%< substrate protein remaining %≤ 100%) | IKZF1 substrate protein remaining % (IKZF1): B ("B" is defined as 80%< substrate protein remaining %≤ 100%) | GSPT1 substrate protein remaining % (GSPT1): A ("A" is defined as 0% ≤ substrate protein remaining % ≤ 80%) | IKZF2 substrate protein remaining % (IKZF2): B ("B" is defined as 80%< substrate protein remaining %≤ 100%)

IC50 (MM.1S): 300 to 500 nM
Compound: O=C1CCN(N2Cc3cc(CN4CCN(c5cccc(Cl)n5)CC4)ccc3C2=O)C(=O)N1 [GT-05126, 1-(5-((4-(6-chloropyridin-2-yl)piperazin-1-yl)methyl)-1-oxoisoindolin-2-yl)dihydropyrimidine-2,4(1H,3H)-dione]
WEE1 substrate protein remaining % (WEE1): A ("A" is defined as 0% ≤ substrate protein remaining % ≤ 80%) | IKZF3 substrate protein remaining % (IKZF3): A ("A" is defined as 0% ≤ substrate protein remaining % ≤ 80%) | CK1α substrate protein remaining % (CK1α): A ("A" is defined as 0% ≤ substrate protein remaining % ≤ 80%) | IKZF1 substrate protein remaining % (IKZF1): A ("A" is defined as 0% ≤ substrate protein remaining % ≤ 80%) | GSPT1 substrate protein remaining % (GSPT1): A ("A" is defined as 0% ≤ substrate protein remaining % ≤ 80%) | IKZF2 substrate protein remaining % (IKZF2): A ("A" is defined as 0% ≤ substrate protein remaining % ≤ 80%)

IC50 (MM.1S): 500 to 1000 nM
Compound: O=C1CCN(N2Cc3cc(CN4CCN(c5ccc(Cl)cn5)CC4)ccc3C2=O)C(=O)N1 [GT-05127, 1-(5-((4-(5-chloropyridin-2-yl)piperazin-1-yl)methyl)-1-oxoisoindolin-2-yl)dihydropyrimidine-2,4(1H,3H)-dione]
WEE1 substrate protein remaining % (WEE1): A ("A" is defined as 0% ≤ substrate protein remaining % ≤ 80%) | IKZF3 substrate protein remaining % (IKZF3): A ("A" is defined as 0% ≤ substrate protein remaining % ≤ 80%) | CK1α substrate protein remaining % (CK1α): A ("A" is defined as 0% ≤ substrate protein remaining % ≤ 80%) | IKZF1 substrate protein remaining % (IKZF1): A ("A" is defined as 0% ≤ substrate protein remaining % ≤ 80%) | GSPT1 substrate protein remaining % (GSPT1): A ("A" is defined as 0% ≤ substrate protein remaining % ≤ 80%) | IKZF2 substrate protein remaining % (IKZF2): B ("B" is defined as 80%< substrate protein remaining %≤ 100%)

IC50 (MM.1S): 500 to 1000 nM
Compound: O=C1CCN(N2Cc3cc(CN4C[C@@H]5C[C@H]4CN5c4cccc(Cl)c4Cl)ccc3C2=O)C(=O)N1 [GT-05163, 1-(5-(((1S,4S)-5-(2,3-dichlorophenyl)-2,5-diazabicyclo[2.2.1]heptan-2-yl)methyl)-1-oxoisoindolin-2-yl)dihydropyrimidine-2,4(1H,3H)-dione]
WEE1 substrate protein remaining % (WEE1): B ("B" is defined as 80%< substrate protein remaining %≤ 100%) | IKZF3 substrate protein remaining % (IKZF3): A ("A" is defined as 0% ≤ substrate protein remaining % ≤ 80%) | CK1α substrate protein remaining % (CK1α): B ("B" is defined as 80%< substrate protein remaining %≤ 100%) | IKZF1 substrate protein remaining % (IKZF1): A ("A" is defined as 0% ≤ substrate protein remaining % ≤ 80%) | GSPT1 substrate protein remaining % (GSPT1): A ("A" is defined as 0% ≤ substrate protein remaining % ≤ 80%) | IKZF2 substrate protein remaining % (IKZF2): A ("A" is defined as 0% ≤ substrate protein remaining % ≤ 80%)

Compound: O=C1CCN(N2Cc3cc(CN4CCC(c5c[nH]c6cc(F)ccc56)CC4)ccc3C2=O)C(=O)N1 [GT-05164, 1-(5-((4-(6-fluoro-1H-indol-3-yl)piperidin-1-yl)methyl)-1-oxoisoindolin-2-yl)dihydropyrimidine-2,4(1H,3H)-dione]
WEE1 substrate protein remaining % (WEE1): B ("B" is defined as 80%< substrate protein remaining %≤ 100%) | IKZF3 substrate protein remaining % (IKZF3): B ("B" is defined as 80%< substrate protein remaining %≤ 100%) | IC50 (MM.1S): 100 to 300 nM | CK1α substrate protein remaining % (CK1α): B ("B" is defined as 80%< substrate protein remaining %≤ 100%) | IKZF1 substrate protein remaining % (IKZF1): A ("A" is defined as 0% ≤ substrate protein remaining % ≤ 80%) | GSPT1 substrate protein remaining % (GSPT1): A ("A" is defined as 0% ≤ substrate protein remaining % ≤ 80%) | IKZF2 substrate protein remaining % (IKZF2): A ("A" is defined as 0% ≤ substrate protein remaining % ≤ 80%)

Compound: O=C1CCN(N2Cc3cc(CN4CCC(N5CCc6cc(F)ccc65)CC4)ccc3C2=O)C(=O)N1 [GT-05165, 1-(5-((4-(5-fluoroindolin-1-yl)piperidin-1-yl)methyl)-1-oxoisoindolin-2-yl)dihydropyrimidine-2,4(1H,3H)-dione]
WEE1 substrate protein remaining % (WEE1): B ("B" is defined as 80%< substrate protein remaining %≤ 100%) | IKZF3 substrate protein remaining % (IKZF3): B ("B" is defined as 80%< substrate protein remaining %≤ 100%) | IC50 (MM.1S): 500 to 1000 nM | CK1α substrate protein remaining % (CK1α): B ("B" is defined as 80%< substrate protein remaining %≤ 100%) | IKZF1 substrate protein remaining % (IKZF1): B ("B" is defined as 80%< substrate protein remaining %≤ 100%) | GSPT1 substrate protein remaining % (GSPT1): A ("A" is defined as 0% ≤ substrate protein remaining % ≤ 80%) | IKZF2 substrate protein remaining % (IKZF2): A ("A" is defined as 0% ≤ substrate protein remaining % ≤ 80%)

Compound: Cc1nc(C2CCN(Cc3ccc4c(c3)C(=O)N(N3CCC(=O)NC3=O)C4=O)CC2)c2c(-c3ccccc3)csc2n1 [GT-08110, 2-(2,4-dioxotetrahydropyrimidin-1(2H)-yl)-5-((4-(2-methyl-5-phenylthieno[2,3-d]pyrimidin-4-yl)piperidin-1-yl)methyl)isoindoline-1,3-dione]
substrate protein remaining % WEE1 (WEE1; [1]): A (0% ≤ substrate protein remaining % ≤ 80%) | substrate protein remaining % IKZF3 (IKZF3; [1]): A (0% ≤ substrate protein remaining % ≤ 80%) | substrate protein remaining % CK1α (CK1α; [1]): A (0% ≤ substrate protein remaining % ≤ 80%) | substrate protein remaining % IKZF1 (IKZF1; [1]): A (0% ≤ substrate protein remaining % ≤ 80%) | substrate protein remaining % GSPT1 (GSPT1; [1]): A (0% ≤ substrate protein remaining % ≤ 80%) | inhibition at 0.01 µM (H292; [2]): 20 to 40% | inhibition at 0.5 µM (H292; [3]): 10 to 15% | substrate protein remaining % IKZF2 (IKZF2; [1]): A (0% ≤ substrate protein remaining % ≤ 80%) | inhibition at 0.01 µM (MV-4-11; [2]): 10 to 18% | inhibition at 0.5 µM (MV-4-11; [3]): 18 to 25% | inhibition at 0.01 µM (MDA-MB-231; [2]): 25 to 40% | inhibition at 0.5 µM (MDA-MB-231; [3]): 15 to 18%
